Test results published in patent US11512203B2, “Water-soluble azo compound or salt thereof, ink and recording medium” (Nippon Kayaku Kabushiki Kaisha, priority 2016, dated 2022).

Assay: Xenon light resistance test, ink of Example 18 (Table 58)
Type: physicochemical
Settings: for each glossy paper (Table 58)
Description: An ink of Example 18 was prepared as in Example 1 except that the compound represented by the above formula (200) was used instead of the compound represented by the above formula (101).
Ink-jet recording was performed with an ink-jet printer (Canon, Inc., Product name: PIXUS ip7230) to allow each of the inks from Example 18 and Comparative Examples 1, 2 above to be attached on the following glossy papers 1 to 4. Upon performing recording, image patterns were created so that the density can be obtained in a gradation of 6 levels: 100%, 85%, 70%, 55%, 40%, and 25% to obtain a half-tone recorded article. The resulting recorded article was used as a test piece to perform the following tests.
Glossy paper 1: Canon, Inc., Product name: Canon Photograph paper, platinum grade (PT-201)
Glossy paper 2: Seiko Epson Corporation, Product name: Photograph paper Crispia
Glossy paper 3: Brother Industries, Ltd., Product name: BP71G
Glossy paper 4: FUJIFILM Corporation, Product name: Gasai Photo-finishing Pro
When required, color measurements of a recorded image were performed using a colorimeter (Product name SpectroEye from X-rite, Inc.). Color measurements were performed under the conditions of a density standard of DIN NB, a wide viewing angle of 2 degrees, a light source of D65. […]

For O=S(=O)(O)CCCOc1cc(N=Nc2ccc(Cl)c(S(=O)(=O)O)c2)c(Cl)cc1Nc1nc(Nc2cc(Cl)c(N=Nc3ccc(Cl)c(S(=O)(=O)O)c3)cc2OCCCS(=O)(=O)O)nc(N2CCN(c3nc(Nc4cc(Cl)c(N=Nc5ccc(Cl)c(S(=O)(=O)O)c5)cc4OCCCS(=O)(=O)O)nc(Nc4cc(Cl)c(N=Nc5ccc(Cl)c(S(=O)(=O)O)c5)cc4OCCCS(=O)(=O)O)n3)CC2)n1 [Example 18], the “light resistance tests, results compared with Comparative Examples 1, 2” value was “better results”.
